{"source": "patent US11707439B2", "about": "“Parenteral treatments involving aminoadamantane derivatives” (Shinkei Therapeutics, Inc., priority 2019, dated 2023)", "key": {"[1]": {"test": "Osmolality of amantadine hydrochloride solution in sterile water for injection", "type": "physicochemical", "excerpt": "Examples of tonicity agents that can be used in the compositions of the present invention include, but are not limited to, sodium chloride, mannitol, dextrose, potassium chloride, sodium chloride and mixtures thereof. The tonicity agents may be present in an amount so as to provide osmolality of from about 250 mOsm/kg to about 350 mOsm/kg, particularly from 280 mOsm/kg to 320 mOsm/kg."}, "[2]": {"test": "Pharmacokinetic study in 10 healthy subjects: intravenous infusion vs oral capsules", "type": "in vivo, human", "conditions": "for Tmax / Cmax / half-life: fasted healthy subjects"}, "fluid percussion injury": {"tested_on": "fluid percussion injury", "conditions": "chronic amantadine-pumping infusion, cited from earlier work"}, "[3]": {"conditions": "postmortem brain tissue of 21 patients previously treated with amantadine sulfate; cited from earlier work"}, "[4]": {"tested_on": "persistent vegetative state", "conditions": "single patient; 100 mg/day intravenously increased to 300 mg/day, then enteral; cited from earlier work"}, "[5]": {"conditions": "continuous subcutaneous administration, Parkinson's disease patients; cited from earlier work"}}, "note": "Counter-ions that a name gives are not always drawn. Like-named read-outs stand apart in the source and are kept apart here.", "data": [{"smiles": "NC12CC3CC(CC(C3)C1)C2", "note": "[amantadine hydrochloride]", "values": [{"measurement": "Osmolality", "setting": "[1]; 10 mg/ml solution in sterile water for injection", "result": 97, "unit": "mOsm/kg"}, {"measurement": "Osmolality", "setting": "[1]; 20 mg/ml solution in sterile water for injection", "result": 192, "unit": "mOsm/kg"}, {"measurement": "Osmolality", "setting": "[1]; 30 mg/ml solution in sterile water for injection", "result": 283, "unit": "mOsm/kg"}, {"measurement": "Osmolality", "setting": "[1]; 40 mg/ml solution in sterile water for injection", "result": 369, "unit": "mOsm/kg"}, {"measurement": "Osmolality", "setting": "[1]; 50 mg/ml solution in sterile water for injection", "result": 509, "unit": "mOsm/kg"}, {"measurement": "Osmolality", "setting": "[1]; 75 mg/ml solution in sterile water for injection", "result": 671, "unit": "mOsm/kg"}]}, {"smiles": "NC12CC3CC(CC(C3)C1)C2", "note": "[amantadine, 1-amantanamine]", "values": [{"measurement": "Peak and total plasma exposures following the infusion, lower than reference oral dose", "setting": "[2]; 50 mg intravenous infusion vs 200 mg oral dose", "result": "approximately 5 fold"}, {"measurement": "Tmax", "setting": "[2]; human, plasma, iv, 50 mg, Treatment A: single 50 mg dose, intravenous infusion over 180 minutes, plasma, read-out: mean Tmax", "result": 4.1, "unit": "h"}, {"measurement": "Tmax", "setting": "[2]; human, plasma, iv, 50 mg, Treatment A: single 50 mg dose, intravenous infusion over 180 minutes, plasma, read-out: median Tmax", "result": 4, "unit": "h"}, {"measurement": "Tmax", "setting": "[2]; human, plasma, po, 200 mg, Treatment B: single 200 mg oral dose as 2×100 mg capsules, plasma, read-out: mean Tmax", "result": 3.6, "unit": "h"}, {"measurement": "Tmax", "setting": "[2]; human, plasma, po, 200 mg, Treatment B: single 200 mg oral dose as 2×100 mg capsules, plasma, read-out: median Tmax", "result": 2.8, "unit": "h"}, {"measurement": "bioavailability", "setting": "[2]; human, plasma, 200 mg oral, from LSGM A/B ratio of CLIV to CLIV/F, read-out: bioavailability of the oral capsule", "result": 122, "unit": "%"}, {"measurement": "Cmax", "setting": "[2]; human, Treatment A: single 50 mg dose, intravenous infusion over 180 minutes, plasma", "result": 142, "unit": "ng/mL"}, {"measurement": "half-life", "setting": "[2]; human, Treatment A: single 50 mg dose, intravenous infusion over 180 minutes, plasma, read-out: mean apparent first-order elimination half-life (T1/2) (converted)", "result": 14, "unit": "h"}, {"measurement": "Cmax", "setting": "[2]; human, Treatment B: single 200 mg oral dose as 2×100 mg capsules, plasma", "result": 643, "unit": "ng/mL"}, {"measurement": "half-life", "setting": "[2]; human, Treatment B: single 200 mg oral dose as 2×100 mg capsules, plasma, read-out: mean T1/2 (converted)", "result": 14.6, "unit": "h"}, {"measurement": "dopamine-release deficits", "setting": "fluid percussion injury; rats after fluid percussion injury", "result": "reversed"}, {"measurement": "behavioral impairment after fluid percussion injuries", "setting": "fluid percussion injury; rats", "result": "ameliorated"}, {"measurement": "elimination half-life from brain tissue", "setting": "[3]", "result": "much longer than from blood"}, {"measurement": "clinical outcome in persistent vegetative state", "setting": "[4]", "result": "stunning awakening of the patient, fully orientated within days"}]}, {"smiles": "CN1CCc2cccc3c2[C@H]1Cc1ccc(O)c(O)c1-3", "note": "[apomorphine]", "values": [{"measurement": "eosinophilia and orthostatic hypotension, share of PD patients", "setting": "[5]", "result": "less than 5%"}]}]}
